Assay: Storage stability of sialyl phosphate donors
Format: physicochemical
Conditions: −20° C., several months
Method: The reaction was complete in 5 h to give a mixture of α- and β-anomers. The sialyl α-phosphate 2a and sialyl β-phosphate 2b can be easily separated by silica gel column chromatography and are both stable at −20° C. for several months.

Which stability on storage does the source give for `CCCCOP(=O)(OCCCC)OC1(C(=O)OC)CC(OC(C)=O)[C@@H](NC(C)=O)C([C@H](OC(C)=O)[C@@H](COC(C)=O)OC(C)=O)O1` (stereo partly shown) [2a] here?
The stability on storage was “stable”.

— patent US8507660B2 (priority 2009, dated 2013)
